# Experimental data reported in patent US7833532B2, “Immunogenic lipopeptides comprising T-helper and cytotoxic T lymphocyte (CTL) epitopes” (The Council of The Queensland Institute of Medical Research, priority 2002, dated 2010).
# System: D1 cells
# Experiment: Maturation of D1 dendritic cells (surface MHC class II, flow cytometry)
# Type: cell-based, BALB/c mouse
# Settings: overnight incubation, 0.45 nmoles/mL; […]
sequence,measurement,value
ALNNRFQIKGVELKSKTYQRTRALV [[Th]-Lys-[CTL]],maturation of D1 cells (percentage expressing high levels of surface MHC class II),≤ 26%
